Data from PubChem BioAssay (NCI).
Values joined by “and” are separate entries in the source; they are usually repeats but may differ in a detail not shown here. Identical values can stand only once.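 Each compound was tested at five concentrations against cells in 96-well plates for 48 hours. GI50 = concentration required for 50% inhibition of growth. TGI denotes the concentration required for complete inhibition of growth.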

How the values were obtained:
Test in all cases: DTP human tumour cell line panel, 48 h
U251 CNS = system: U251 CNS
MCF7 breast = system: MCF7 breast
A549 NSCLC = system: A549 NSCLC
IGROV1 ovarian = system: IGROV1 ovarian
OVCAR-4 ovarian = system: OVCAR-4 ovarian
SW-620 colon = system: SW-620 colon
SF-268 CNS = system: SF-268 CNS
SNB-75 CNS = system: SNB-75 CNS
UO-31 renal = system: UO-31 renal
SF-295 CNS = system: SF-295 CNS
LOX IMVI melanoma = system: LOX IMVI melanoma
MALME-3M melanoma = system: MALME-3M melanoma
HOP-92 NSCLC = system: HOP-92 NSCLC
CCRF-CEM leukemia = system: CCRF-CEM leukemia
MOLT-4 leukemia = system: MOLT-4 leukemia
COLO 205 colon = system: COLO 205 colon
CAKI-1 renal = system: CAKI-1 renal
BT-549 breast = system: BT-549 breast
MDA-N = system: MDA-N

| SMILES | TGI (U251 CNS) | TGI (MCF7 breast) [µM] | TGI (A549 NSCLC) [µM] | TGI (IGROV1 ovarian) [µM] | TGI (OVCAR-4 ovarian) [µM] | TGI (SW-620 colon) [µM] | TGI (SF-268 CNS) [µM] | TGI (SNB-75 CNS) [µM] | TGI (UO-31 renal) [µM] | TGI (SF-295 CNS) | TGI (LOX IMVI melanoma) [µM] | TGI (MALME-3M melanoma) | TGI (HOP-92 NSCLC) [µM] | TGI (CCRF-CEM leukemia) | TGI (MOLT-4 leukemia) [µM] | TGI (COLO 205 colon) [µM] | TGI (CAKI-1 renal) [µM] | TGI (BT-549 breast) [µM] | TGI (MDA-N) [µM] | GI50 (MOLT-4 leukemia) [µM] |
| --- | --- | --- | --- | --- | --- | --- | --- | --- | --- | --- | --- | --- | --- | --- | --- | --- | --- | --- | --- | --- |
| O=c1oc2cc(O)ccc2c2oc3cc(O)ccc3c12 | 93.5 µM | 122 | 125 | > 125 | > 125 | > 125 | > 82.5 | > 125 | > 117 | > 125 µM | > 102 | > 125 µM | > 125 | > 125 µM | 83.3 | 72.5 | > 107 |  |  |  |
| CC(ON1[C@](C)(c2ccccc2)CC[C@@]1(C)c1ccccc1)c1ccccc1 (stereo not given in full) | > 100 µM |  | > 100 | > 100 | > 100 | > 100 | > 100 | 54.6 | > 100 | > 100 µM | > 100 | > 100 µM | > 100 | 52.5 µM | 46.1 | > 100 | > 100 | 42.2 |  |  |
| O=C1NC(=NCc2ccc(F)cc2)N/C1=C\c1ccccc1Cl | 30.4 µM | 54.8 | 41.8 | > 100 | 74.3 | 31.1 | 59.9 | 26.6 |  | 35.8 µM | 28.6 | 41.8 µM | 24.9 |  | > 100 | 37.5 | 70.8 | 56.8 | 40.3 |  |
| O=C1CCCCN1 | > 1120 µM | > 1120 | > 1120 | > 1120 | > 1120 | > 1120 | > 1120 | > 1120 | > 1120 | > 1120 µM | > 1120 | > 1120 µM | > 1120 | > 1120 µM | > 1120 | > 1120 | > 1120 |  |  |  |
| O=C1CCC2(CC1CCS(=O)c1ccccc1)OCCO2 (stereo not given) | > 100 µM | > 100 | > 100 | > 100 | > 100 | > 100 | > 100 | > 100 | > 100 | > 100 µM | > 100 | > 100 µM | > 100 | > 100 µM | > 100 | > 100 | > 100 |  | > 100 |  |
| CC(C)CNCCc1ccccn1 | > 100 µM | > 100 | > 100 | > 100 | > 100 | > 100 | > 100 | > 100 | > 100 | > 100 µM | > 100 | > 100 µM | > 100 | > 100 µM |  | > 100 | > 100 | > 100 | > 100 |  |
| COC(=O)/C=C\C(C#N)(C#N)N=Cc1cccs1 | > 53.3 µM | 4.06 | > 56 | 32 | 17 |  | 32.1 | 29.3 | 5.99 | 42.3 µM | 6.68 | 6.61 µM | 3.75 | 3.58 µM | > 24.5 |  | 3.77 | 19.9 | 49.3 |  |
| C=CCn1c(=O)c(Br)nn(CCOCP(=O)(OCC)OCC)c1=O | > 100 µM | > 100 | > 100 | > 100 |  | > 100 | > 100 | > 100 | > 100 |  | > 100 | > 100 µM | > 100 | > 100 µM | > 100 | > 100 | > 100 |  | > 100 |  |
| CC[C@@]1(O)C[C@H](OC2CC(N(C)C)C(OC3CC(O)C(OC4CCC(=O)C(C)O4)C(C)O3)C(C)O2)c2c(cc3c(c2O)C(=O)c2c(O)cccc2C3=O)C1C(=O)OC (stereo not given in full) | 2.72 µM and 9.24 µM |  |  |  | 0.117 |  |  |  |  | 1.1 µM and 1.89 µM |  | 0.0948 µM and 0.569 µM | 0.0897 | 0.116 µM and 1.02 µM | 0.655 |  | 4.09 |  | 0.149 | 0.00383 |
| OCC(O)COCn1cc(Cn2ncc3c(NCc4ccccc4)ncnc32)nn1 (stereo not given) | > 100 µM | > 100 | > 100 | > 100 | > 100 | > 100 | 32.8 |  | > 100 | > 100 µM | > 100 |  | > 100 | > 100 µM | > 100 | > 100 | > 100 | > 100 | > 100 |  |
| CC(=O)OCCCCN1C(=O)CSc2ccccc21 | > 100 µM | > 100 | > 100 | > 100 | > 100 | > 100 |  | > 100 | > 100 | > 100 µM | > 100 |  | > 100 | > 100 µM | > 100 |  | > 100 | > 100 | > 100 |  |
